Here are results for 17 molecules from patent publication US4596802A, “Thiadiazole derivatives active on the central nervous system and pharmaceutical compositions” (Sanofi, priority 1984, dated 1986).

Series [1] can be described thus: Acute toxicity, mortality within 24 hours, intraperitoneal. As to conditions: mouse, in vivo, ip, mice, dose of 300 mg/kg. As to the method:
The products to be studied were administered intraperitoneally in increasing doses to groups of 10 mice (CD1, Charles River; 20±1 g).
From the results obtained, the 50% lethal dose, i.e. the dose causing the death of 50% of the animals, was determined for each of the products studied.

For series [2], the system named is ptosis induced by reserpine. The series is described as follows: Antagonism of the ptosis induced by reserpine. Type of series: in vivo, female CD1 mice. The conditions noted are these: Mus musculus, ip; mice, intraperitoneal; reserpine 2 mg/kg i.v. simultaneously; read at 1 hour; read-out: ED50 (dose which completely blocks the ptosis induced by reserpine in 50% of the animals). As to the method: This test, described by GOURET et al. (Journal de Pharmacologie, Paris, 8, 333-350, 1977), was performed on female CD1 mice (Charles River) weighing 20±1 g. Reserpine causes ptosis 1 hour after intravenous administration; the majority of antidepressants oppose this ptosis. The following protocol was chosen. The substances to be studied were administered intraperitoneally and the reserpine was simultaneously administered intravenously at a dose of 2 mg/kg. […] This test was performed on groups of 10 mice; the results are expressed as ED50 (50% effective dose), i.e. the dose which completely blocks the ptosis induced by reserpine in 50% of the animals.

Series [3] relates to trembling induced by L-5-HTP. The series is described as follows: Potentiation of the trembling induced by L-5-HTP. The conditions noted are these: Mus musculus, ip; mice, intraperitoneal, 1 hour before L-5-HTP 200 mg/kg i.p.; observed 20 minutes; read-out: ED50 (dose which induces trembling in 50% of the animals treated). The class given is in vivo, female CD1 mice. An excerpt:
Its injection into mice causes a behavioral syndrome characterized in particular by violent trembling. Antidepressants which inhibit the recapture of serotonin or monoamine oxidase inhibitors (MAOI) potentiate this effect of […], 1959). The protocol described by […] (Biochem. Pharmacol., 2, 290-298, 1959) was used. […] The results are expressed as ED50, i.e. the dose which induces trembling in 50% of the animals treated.

For series [4], the system named is dopaminergic receptors. The series is described as follows: Rotation behavior, unilateral striatal lesion by 6-hydroxydopamine. The class given is in vivo, female CD1 mice. As to conditions: Mus musculus, ip; mice, intraperitoneal, 1 hour after administration, rotations over 2 minutes; read-out: MED (minimum dose necessary to cause a significant reduction in the number of ipsilateral rotations). As to the method:
This test is the one described by PROTAIS et al. (Journal de Pharmacologie,Paris, 7, 251-255, 1976). Female mice (Charles River, CD1) weighing from 25 to 30 g were subjected beforehand to a unilateral lesion of the striatum by the stereotaxic injection of 6-hydroxydopamine at a rate of 8 μg per animal. One week after this operation, the products were administered intraperitoneally to groups of 7 mice. 1 hour after administration of the product, the number of rotations was evaluated for 2 minutes. The rotations on the same side as the lesion were counted as positive and those on the opposite side as negative. The algebraic sum of the rotations for one group of treated animals was compared with that of the group of control animals which had only received the vehicle (aqueous solution of gum). In this test, stimulants of the dopaminergic receptors (apomorphine type) reduce the spontaneous rotations whereas indirect dopaminomimetic agents (amphetamine type) increase them. The results are expressed as MED (minimum effective dose), i.e. the minimum dose necessary to cause a significant reduction (Student's t-test) in the number of ipsilateral rotations spontaneously observed in the control animals.

SMILES strings stand for the structures.

By mortality is commonly meant the share of the test organisms that died. A low value points to a weak lethal effect. What is called ED50 is the dose that gives a 50% effect, or the effect in half of the subjects. As to `CN(C)CCNc1nnc(-c2ccccc2)s1` [Compound A, reference compound], the mortality at 24 h in series [1] came out at 70%. Also, the ED50 in series [2] came out at 32 mg/kg.
On the same counts, the results for `CCN(CC)CCNc1nnc(-c2ccccc2)s1` [Compound B, reference compound] are 90% and 43 mg/kg.
In the case of `C1CCC(c2nnc(NCCN3CCOCC3)s2)C1` [SR 43057 A], the ED50 in series [2] is 23 mg/kg.
`C1CCC(c2nnc(NCCN3CCOCC3)s2)CC1` [SR 43058, 2-(2-Morpholinoethylamino)-5-cyclohexyl-1,3,4-thiadiazole]: the median effective dose (ED50) in series [3] worked out at 17 mg/kg; in series [2], 22 mg/kg.
Regarding `COc1ccc(-c2nnc(NCCN3CCOCC3)s2)cc1` [SR 43198, 2-(2-morpholinoethylamino)-5-(4-methoxyphenyl)-1,3,4-thiadiazole], the ED50 in series [3] was found to be 7 mg/kg.
For the molecule `Cl.Cl.Oc1ccc(-c2nnc(NCCN3CCOCC3)s2)cc1` [SR 43202 A, 2-(2-Morpholinoethylamino)-5-(4-hydroxyphenyl)-1,3,4-thiadiazole dihydrochloride], the minimal effective dose in series [4] was found to be 0.1 mg/kg.
Regarding `c1ccc(-c2ccc(-c3nnc(NCCN4CCOCC4)s3)cc2)cc1` [SR 43294], the minimal effective dose in series [4] came out at 0.1 mg/kg.
Take `COc1ccc(-c2nnc(NCCN3CCOCC3)s2)cc1OC` [SR 43295, 2-(2-morpholinoethylamino)-5-(3,4-dimethoxyphenyl)-1,3,4-thiadiazole]: in series [4], the minimal effective dose worked out at 0.1 mg/kg.
On the same count and under the same terms, the result for `Cl.Cl.Oc1ccc(-c2nnc(NCCN3CCOCC3)s2)cc1O` [SR 43296 A, 2-(2-Morpholinoethylamino)-5-(3,4-dihydroxyphenyl)-1,3,4-thiadiazole dihydrochloride] reads 0.1 mg/kg.
For `O=[N+]([O-])c1ccc(-c2nnc(NCCN3CCOCC3)s2)cc1` [SR 43530], the ED50 in series [3] came to 6.2 mg/kg. Moreover, the minimal effective dose in series [4] stood at 0.1 mg/kg.
As to `FC(F)(F)c1cccc(-c2nnc(NCCN3CCOCC3)s2)c1` [SR 43531 A], the ED50 in series [3] stood at 7.8 mg/kg.
Take `FC(F)(F)c1ccc(-c2nnc(NCCN3CCOCC3)s2)cc1` [SR 43604]: the minimal effective dose in series [4] came out at 0.1 mg/kg.
With `Cl.Cl.c1ccc(-c2nnc(NCCN3CCOCC3)s2)cc1` [SR 95311 A, 2-(2-Morpholinoethylamino)-5-phenyl-1,3,4-thiadiazole dihydrochloride], the ED50 was found to be 6 mg/kg in series [3] and 4.6 mg/kg in series [2]. In addition, in series [4], the minimal effective dose came out at 0.1 mg/kg.
For the molecule `Clc1ccc(-c2nnc(NCCN3CCOCC3)s2)cc1` [SR 95340 A], the ED50 in series [3] turned out to be 3.6 mg/kg; in series [2] it was 8.8 mg/kg.
On to `Clc1cccc(-c2nnc(NCCN3CCOCC3)s2)c1` [SR 95396 A], for which the ED50 in series [2] came out at 11.3 mg/kg. The minimal effective dose in series [4] was 0.1 mg/kg.
Take `Clc1ccccc1-c1nnc(NCCN2CCOCC2)s1` [SR 95397 A]: the ED50 in series [3] is 14.5 mg/kg; in series [2], 18 mg/kg. Besides, in series [4], the minimal effective dose worked out at 0.1 mg/kg.
As for `c1ccc2c(-c3nnc(NCCN4CCOCC4)s3)cccc2c1` [SR 95559 A], in series [4], the minimal effective dose worked out at 0.1 mg/kg.
